This is an account of results in PubChem BioAssay AID540260 (Sanford-Burnham Center for Chemical Genomics, 2011).

Activity calls are given as the source filed them. How the calls were made is not given here. A value given as a limit tells only on which side of the number the result lay.

The target in the test is Alkaline phosphatase, placental type (Homo sapiens) (UniProt P05187). Briefly: PLAP enzyme inhibition by analogs, SAR follow-up, selectivity assay for human IAP inhibitor project, biochemical, human PLAP isozyme, set 2 (AID 540260). The note with it: purified placental alkaline phosphatase enzyme activity.

The IC50 is the midpoint of a concentration-inhibition curve.

Consider `O=C(CNS(=O)(=O)c1ccc2[nH]c(=O)oc2c1)NCc1ccc2c(c1)OCO2`, for which the IC50 was > 100 µM (inactive).
As for `N#Cc1ccc(CNC(=O)CCNS(=O)(=O)c2ccc3[nH]c(=O)oc3c2)cc1`, the IC50 is > 100 µM (inactive).
Consider `O=C(CNS(=O)(=O)c1ccc2[nH]c(=O)oc2c1)Nc1ccc2c(c1)OCO2`, for which the IC50 is > 100 µM (inactive).
The value for `COc1ccc(NC(=O)CNS(=O)(=O)c2ccc3[nH]c(=O)oc3c2)cc1OC` was > 100 µM (inactive); that for `Cc1ccc(C)c(NC(=O)CCNS(=O)(=O)c2ccc3[nH]c(=O)oc3c2)c1` was > 100 µM (inactive).
